Test: mn = molality of the nth substance listed, in mol/kg
Conditions: 101 kPa, Liquid; for mass density: Pycnometric method; for electrical conductivity: Frequency=0.001 MHz, Alternating current cell with electrodes; for speed of sound: Frequency=2 MHz

O=[N+]([O-])[O-].O=[N+]([O-])[O-].[Mg+2] [magnesium nitrate] + CO
Conditions | electrical conductivity [S/m] | mass density [kg/m3] | speed of sound [m/s] | viscosity [mPa·s]
301.25 K, m1 = 0.4024 | – | 827.04 | – | –
301.3 K, m1 = 0.0082 | – | 785.69 | – | –
301.4 K, m1 = 0.2776 | – | 814.59 | – | –
301.4 K, m1 = 1.71 | – | 952.09 | – | –
302.05 K, m1 = 0.0545 | – | 790.26 | – | –
302.2 K, m1 = 0.4555 | – | 830.9 | – | –
302.25 K, m1 = 0.782 | – | 868.46 | – | –
302.45 K, m1 = 0.1047 | – | 796.51 | – | –
302.55 K, m1 = 1.004 | – | 883.47 | – | –
302.7 K, m1 = 0.6276 | – | 848.25 | – | –
302.7 K, m1 = 1.259 | – | 910.86 | – | –
302.85 K, m1 = 1.875 | – | 961.69 | – | –
303.15 K, m1 = 0.0082 | 0.1462 | 783.99 | 1091.9 | 0.5215
303.15 K, m1 = 0.0545 | 0.4108 | – | 1098.1 | 0.5545
303.15 K, m1 = 0.0667 | 0.4481 | – | 1096.9 | 0.5716
303.15 K, m1 = 0.1047 | 0.5889 | – | 1102.5 | 0.5909
303.15 K, m1 = 0.2776 | 1.123 | – | 1121.5 | 0.6836
303.15 K, m1 = 0.4024 | 1.41 | – | 1132.5 | 0.7943
303.15 K, m1 = 0.4555 | 1.489 | – | 1139.1 | 0.8264
303.15 K, m1 = 0.6276 | 1.775 | – | 1155.5 | 1.05
303.15 K, m1 = 0.782 | 1.979 | – | 1172.9 | 1.177
303.15 K, m1 = 0.881 | 2.037 | – | 1179.3 | 1.184
303.15 K, m1 = 0.9116 | 2.054 | – | 1182.3 | 1.245
303.15 K, m1 = 1.004 | 2.136 | – | 1196.9 | 1.354
303.15 K, m1 = 1.259 | 2.213 | – | 1219.1 | 1.875
303.15 K, m1 = 1.492 | 2.223 | – | 1243 | 2.267
303.15 K, m1 = 1.71 | 2.246 | – | 1263.7 | 2.73
303.15 K, m1 = 1.875 | 2.217 | – | 1272.7 | 3.138
303.25 K, m1 = 0.4024 | – | 825.26 | – | –
303.4 K, m1 = 0.2776 | – | 812.83 | – | –
303.4 K, m1 = 1.492 | – | 932.03 | – | –
303.75 K, m1 = 0.0545 | – | 788.57 | – | –
303.85 K, m1 = 0.881 | – | 868.76 | – | –
304 K, m1 = 0.0082 | – | 782.31 | – | –
304.1 K, m1 = 0.782 | – | 866.62 | – | –
304.2 K, m1 = 0.4555 | – | 829.11 | – | –
304.25 K, m1 = 0.1047 | – | 794.8 | – | –
304.35 K, m1 = 0.0667 | – | 789.8 | – | –
304.65 K, m1 = 0.6276 | – | 846.53 | – | –
304.65 K, m1 = 1.004 | – | 881.56 | – | –
304.8 K, m1 = 1.259 | – | 908.91 | – | –
304.9 K, m1 = 1.71 | – | 949.01 | – | –
304.95 K, m1 = 0.0082 | – | 780.67 | – | –
305.05 K, m1 = 0.4024 | – | 823.53 | – | –
305.15 K, m1 = 0.0667 | – | 789.04 | – | –
305.25 K, m1 = 0.2776 | – | 811.08 | – | –
305.55 K, m1 = 0.0545 | – | 786.97 | – | –
306 K, m1 = 1.875 | – | 958.63 | – | –
306.6 K, m1 = 0.0082 | – | 778.26 | – | –
306.7 K, m1 = 1.492 | – | 929.13 | – | –
306.75 K, m1 = 1.004 | – | 879.67 | – | –
306.8 K, m1 = 0.4024 | – | 821.82 | – | –
306.8 K, m1 = 0.881 | – | 866.06 | – | –
306.85 K, m1 = 0.0667 | – | 787.33 | – | –
306.85 K, m1 = 0.1047 | – | 792.32 | – | –
306.9 K, m1 = 1.259 | – | 907.07 | – | –
306.95 K, m1 = 0.4555 | – | 826.52 | – | –
307.1 K, m1 = 1.71 | – | 947.08 | – | –
307.15 K, m1 = 0.2776 | – | 809.38 | – | –
307.15 K, m1 = 0.782 | – | 863.84 | – | –
307.25 K, m1 = 0.0545 | – | 785.27 | – | –
307.55 K, m1 = 0.6276 | – | 843.81 | – | –
308.15 K, m1 = 0.0082 | 0.1518 | – | 1075.4 | 0.486
308.15 K, m1 = 0.0545 | 0.4242 | – | 1082.1 | 0.5169
308.15 K, m1 = 0.0667 | 0.4649 | – | 1083.3 | 0.5321
308.15 K, m1 = 0.1047 | 0.6114 | – | 1086 | 0.5501
308.15 K, m1 = 0.2776 | 1.172 | – | 1106.2 | 0.6334
308.15 K, m1 = 0.4024 | 1.476 | – | 1116.1 | 0.7332
308.15 K, m1 = 0.4555 | 1.559 | – | 1122.4 | 0.7633
308.15 K, m1 = 0.6276 | 1.867 | – | 1139.5 | 0.9449
308.15 K, m1 = 0.782 | 2.089 | – | 1157.4 | 1.077
308.15 K, m1 = 0.881 | 2.154 | – | 1163.7 | 1.083
308.15 K, m1 = 0.9116 | 2.173 | – | 1165.8 | 1.135
308.15 K, m1 = 1.004 | 2.266 | – | 1180.7 | 1.233
308.15 K, m1 = 1.259 | 2.359 | – | 1200 | 1.694
308.15 K, m1 = 1.492 | 2.396 | – | 1227 | 2.044
308.15 K, m1 = 1.71 | 2.421 | – | 1247.8 | 2.433
308.15 K, m1 = 1.875 | 2.395 | – | 1256.6 | 2.765
308.35 K, m1 = 1.875 | – | 956.57 | – | –
308.55 K, m1 = 0.0667 | – | 785.71 | – | –
308.6 K, m1 = 0.4024 | – | 820.2 | – | –

From the NIST ThermoML archive (doi:10.1021/je800463k)
